Paper PMC10534582, “A Pharmacokinetic Study of Sixteen Major Bioactive Components of Jinshui-Huanxian Granules in Pulmonary Fibrosis Model and Control Rats Using Orbitrap Fusion Mass Spectrometry” (Molecules, 2023)
Read-outs that look alike come from different tables or passages of the source.

Assays:
[1] = Pharmacokinetics of JHG components in pulmonary fibrosis (PF) model rats after intragastric administration of JHGs (plasma, Orbitrap Fusion MS); assay type: in vivo, Sprague Dawley (SD) rats; conditions: for Cmax, PF model group compared with the control group: medium dose selected for comparison; for AUCs, PF model group compared with the control group: p < 0.05; for Tmax / half-life / MRT last / Cmax / AUC(0-inf) / AUC(0-t) / MRT inf: male, rat, plasma, po; for pharmacokinetic process (versus dosage): low, medium, high doses of JHGs; for MRT last: read-out: MRT(0-t); for Cmax: intragastric JHGs; for MRT inf: read-out: MRT(0-∞)
Experimental: Healthy male Sprague Dawley (SD) rats of SPF grade (240 ± 20 g) were purchased from Sipeifu (Beijing, China) Biotechnology Co., Ltd. (Beijing, China), Certificate of Conformity No.: SCYK (Beijing, China) 2019-0015, Animal Quality Certificate No.: 110324220102348616. They were housed in the Animal Center of Henan University of Traditional Chinese Medicine, which passed the ethical audit, ethics number: DWLL202208003, breeding Co. 24 °C, relative humidity 50 ± 2%. The animals fasted for 12 h before the experiment and drank water freely. All feeding and experimental studies on experimental animals were in accordance with the regulations on the Management of Experimental Animals in Henan Province.
The PF model in rats was replicated by reference to the conclusion tracheal intubation method in the literature. After the rats were anesthetized, bleomycin (BLM) (5 mg/kg) was used as an induction agent and followed the tracheal intubation method. BLM solution was aspirated with a 1 mL syringe and injected into the indwelling syringe. A total of 0.3 mL of air was rapidly pushed into the syringe, the rats were immediately stroked upright so that the BLM solution was evenly distributed in both lungs. BLM was given on day 0 for modeling, then gavage was taken after day 28, with fasting without water for 12 h before sampling. The histopathological examination was performed to verify the construction of the PF model. The rats were anesthetized by the abdominal cavity, then the lung tissues were violently shocked by opening the chest, and the right lower lobe of the lung was taken and fixed in 4% formaldehyde solution, then dehydrated by sucrose gradient, paraffin-embedded, and sectioned. H&E and Masson staining were performed to observe the degree of alveolitis of lung tissue and the degree of pulmonary fibrosis, respectively. The inflammation and fibrosis of lung tissues was observed under the light microscope.
Twenty-four healthy male SD rats or PF model rats, weighing 240 ± 20 g, fasted for 12 h before the experiment and drank water freely. Both kinds of rats were randomly divided into four groups. Blank group: equal dose of water by intragastric, low dose; administration group: rats were given the equivalent human dose of JHGs by intragastric, i.e., 10.8 g of raw drug/kg/d (5.70 g/kg/d); medium-dose administration group: 2 times the human equivalent dose of JHGs by intragastric, i.e., 21.6 g of raw drug/kg/d (11.41 g/kg/d); high-dose administration group: 4 times the human equivalent dose of JHG, i.e., 43.2 g of raw drug/kg/d (22.81 g/kg/d). Blood was collected from the tail vein before and 0.083, 0.25, 0.5, 0.75, 1, 1.5, 2, 3, 4, 6, 8, 12, 18, and 24 h after dosing, respectively. A total of 0.5 mL was placed in a heparin sodium centrifuge tube. Whole blood was left for 30 min and then centrifuged in a low-temperature freezing centrifuge (4 °C, 3000 r/min) for 15 min. The upper layer of plasma was collected and stored in a refrigerator at −80 °C.
We added 50 μL of internal standard solution and 800 μL of methanol, shook for 15 min, then centrifuged at 12,000 r/min for 10 min, took the supernatant, dried in a centrifuge concentrator, added 50 μL of the initial mobile phase to the residue, dissolved, centrifuged, then separated the upper layer of the solution used as the test solution. A total of 5 μL test solution was taken into the sample for analysis. For each compound with a certain dosage, the same procedure is repeated six times in parallel. The concentration in plasma was calculated by the internal standard method.
Accucore C18 (100 mm × 2.1 mm, 2.6 μm) column at 25 °C, the mobile phase was methanol (A)-0.1% formic acid aqueous solution (B). The gradient elution program was 0–4 min (65% B-40% B), 4–5 min (40% B-40% B), 5–6 min (40% B-28% B), and 6–7 min (28% B-19% B), 7–7.5 min (19% B-10% B), 7.5–11 min (10% B-0% B), the flow rate was 0.2 mL/min, and the injection volume was 5 μL. […]

[2] = after oral administration; cited from earlier work
[3] = Sprague-Dawley, PF model rats, after administration of JHGs, read-out: Tmax of all dosages
[4] = PF model rats, JHGs high dose 22.81 g/kg/d
[5] = PF model rats, JHGs low dose 5.70 g/kg/d
[6] = PF model rats, JHGs medium dose 11.41 g/kg/d
[7] = Sprague Dawley, 5.7 g/kg/day, PF model rats, JHGs low dose 5.70 g/kg/d
[8] = Sprague Dawley, 5.7 g/kg/day, PF model rats, JHGs low dose 5.70 g/kg/d, read-out: Tmax
[9] = Sprague Dawley, 5.7 g/kg/day, PF model rats, low dose 5.70 g/kg/d, n=6 (1st of 3 stacked values)
[10] = Sprague Dawley, 11.41 g/kg/day, PF model rats, JHGs medium dose 11.41 g/kg/d
[11] = Sprague Dawley, 11.41 g/kg/day, PF model rats, JHGs medium dose 11.41 g/kg/d, read-out: Tmax
[12] = Sprague Dawley, 11.41 g/kg/day, PF model rats, medium dose 11.41 g/kg/d, n=6 (2nd of 3 stacked values)
[13] = Sprague Dawley, 22.81 g/kg/day, PF model rats, JHGs high dose 22.81 g/kg/d
[14] = Sprague Dawley, 22.81 g/kg/day, PF model rats, JHGs high dose 22.81 g/kg/d, read-out: Tmax
[15] = Sprague-Dawley, 5.7 g/kg/day, PF model rats, JHGs low dose 5.70 g/kg/d
[16] = Sprague-Dawley, 11.41 g/kg/day, PF model rats, JHGs medium dose 11.41 g/kg/d
[17] = Sprague-Dawley, 22.81 g/kg/day, PF model rats, JHGs high dose 22.81 g/kg/d
[18] = Sprague-Dawley, 22.81 g/kg/day, PF model rats, high dose 22.81 g/kg/d, n=6 (3rd of 3 stacked values)

SMILES | Tmax [1, 3] | Clearances [1, 4] | Vss [1, 4] | Clearances [1, 5] | Vss [1, 5] | Clearances [1, 6] | Vss [1, 6] | half-life [1, 7] | MRT last [1, 7] | Tmax [1, 8] | Cmax [1, 9] | half-life [1, 10] | MRT last [1, 10] | Tmax [1, 11] | Cmax [1, 12] | half-life [1, 13] | Tmax [1, 14] | AUC(0-inf) [1, 15] | AUC(0-t) [1, 15] | MRT inf [1, 15] | also measured
O=c1cc(-c2ccc(O)cc2)oc2cc(OC3OC(CO)C(O)C(O)C3O)cc(O)c12 (stereo not shown) [Apigenin-7-glucoside] | ≤ 2 h |  |  |  |  |  |  |  |  |  |  |  |  |  |  |  |  |  |  |  | Tmax, PF model group compared with the control group ([1]; PF model vs control rats): decreased significantly; Cmax, PF model group compared with the control group ([1]; PF model vs control rats): significantly decreased; AUCs, PF model group compared with the control group ([1]; PF model vs control rats): significantly decreased
O=c1cc(-c2ccc(O)c(O)c2)oc2cc(O[C@@H]3O[C@H](CO)[C@@H](O)[C@H](O)[C@H]3O)cc(O)c12 [Cynaroside] |  |  |  |  |  |  |  |  |  |  |  |  |  |  |  |  |  |  |  |  | Cmax and AUCs (AUC(0–t), AUC (0–∞)) compared among the analytes ([1]; PF model rats): highest; correlation between CL, AUC, t½, and dose ([1]; PF model rats): there was a correlation; pharmacokinetic process (versus dosage) ([1]; PF model rats): linear pharmacokinetic process; AUC(0–t) in the model group relative to the control group ([1]; PF model vs control rats): approximately twice as high; Cmax in the model group relative to the control group ([1]; PF model vs control rats): approximately twice as high
CC1=C2CC3C(CC(=O)C4CC(O)CCC43C)C2CCC12OC1CC(C)CNC1C2C (stereo not shown) [Peimisine] |  | 0.35 ± 0.06 L/h/kg | 4.24 ± 0.61 L | 0.14 ± 0.02 L/h/kg | 1.62 ± 0.32 L | 0.26 ± 0.05 L/h/kg | 2.91 ± 0.52 L | 432 ± 16.8 min | 7.56 ± 0.17 h | 1.5 h | 2.05 ± 0.49 ng/mL | 495 ± 56.4 min | 7.92 ± 0.2 h | 3.67 ± 0.58 h | 2.51 ± 0.55 ng/mL | 358 ± 13.8 min | 8 h | 14.6 ± 2.48 ng·h/mL | 12.3 ± 2.23 ng·h/mL | 11.8 ± 0.51 h | pharmacokinetic process (versus dosage) ([1]; PF model rats): linear pharmacokinetic process; MRT(0–t), PF model group compared with the control group ([1]; PF model vs control rats): decreased; AUC(0-inf) [1, 16]: 26.8 ± 5.8 ng·h/mL; AUC(0-t) [1, 16]: 23.4 ± 5.01 ng·h/mL; MRT inf [1, 16]: 11.4 ± 1.05 h; AUC(0-inf) [1, 17]: 33.1 ± 6.82 ng·h/mL; AUC(0-t) [1, 17]: 29.7 ± 5.82 ng·h/mL; MRT last [1, 17]: 9.84 ± 0.24 h; MRT inf [1, 17]: 12.2 ± 0.39 h; Cmax [1, 18]: 2.76 ± 0.48 ng/mL

The next lines start with results.

Tmax [1, 3] | Clearances [1, 4] | Vss [1, 4] | Clearances [1, 5] | Vss [1, 5] | Clearances [1, 6] | Vss [1, 6] | half-life [1, 7] | MRT last [1, 7] | Tmax [1, 8] | Cmax [1, 9] | half-life [1, 10] | MRT last [1, 10] | Tmax [1, 11] | Cmax [1, 12] | half-life [1, 13] | Tmax [1, 14] | AUC(0-inf) [1, 15] | AUC(0-t) [1, 15] | MRT inf [1, 15] | SMILES | also measured
≤ 2 h | 78.42 ± 15.85 L/h/kg | 864 ± 195.9 L | 7.16 ± 0.71 L/h/kg | 166.86 ± 26.65 L | 19.65 ± 5.02 L/h/kg | 769.75 ± 168.2 L | 1060 ± 109 min | 8.86 ± 0.2 h | 0.75 h | 2.97 ± 0.67 ng/mL | 1890 ± 796 min | 9.13 ± 0.25 h | 0.75 h | 3.37 ± 0.53 ng/mL | 575 ± 203 min | 0.75 h | 33.4 ± 4.41 ng·h/mL | 21.6 ± 3.48 ng·h/mL | 23.2 ± 2.12 h | COc1ccc(-c2cc(=O)c3c(OC)c(OC)c(OC)c(OC)c3o2)cc1OC [Nobiletin] | AUC(0-inf) [1, 16]: 43.1 ± 11.1 ng·h/mL; AUC(0-t) [1, 16]: 20 ± 2.62 ng·h/mL; MRT inf [1, 16]: 41.8 ± 18.4 h; AUC(0-inf) [1, 17]: 18 ± 3.39 ng·h/mL; AUC(0-t) [1, 17]: 15.5 ± 2.99 ng·h/mL; MRT last [1, 17]: 6.66 ± 0.35 h; MRT inf [1, 17]: 11.1 ± 1.44 h; Cmax [1, 18]: 3.57 ± 0.3 ng/mL
≤ 2 h | 282.84 ± 90.76 L/h/kg | 12017.41 ± 3866.6 L | 93.8 ± 25.66 L/h/kg | 2980.29 ± 449.33 L | 316.18 ± 67.77 L/h/kg | 8115.77 ± 895.52 L | 1530 ± 530 min | 9.14 ± 0.1 h | 0.5 h | 2.79 ± 0.6 ng/mL | 1150 ± 398 min | 9.7 ± 0.37 h | 0.75 h | 3.16 ± 0.22 ng/mL | 2180 ± 1540 min | 3 h | 41.8 ± 12.1 ng·h/mL | 21.8 ± 2.86 ng·h/mL | 33.8 ± 11.4 h | COc1ccc(C(C)=O)c(O)c1 [Paeonol] | bioavailability in vivo [2]: poor; Cmax, PF model group compared with the control group ([1]; PF model vs control rats): significantly decreased; AUCs, PF model group compared with the control group ([1]; PF model vs control rats): significantly decreased; AUC(0-inf) [1, 16]: 41.6 ± 9.78 ng·h/mL; AUC(0-t) [1, 16]: 24.5 ± 2.15 ng·h/mL; MRT inf [1, 16]: 26.9 ± 8.95 h; AUC(0-inf) [1, 17]: 83.4 ± 34.3 ng·h/mL; AUC(0-t) [1, 17]: 35 ± 1.86 ng·h/mL; MRT last [1, 17]: 9.41 ± 0.4 h; MRT inf [1, 17]: 49.6 ± 33.3 h; Cmax [1, 18]: 3.63 ± 0.33 ng/mL
